These results are taken from ChEMBL document CHEMBL1126716, “Synthesis and evaluation of the antitumor activity of 4,5-diamino-substituted 1,2-benzoquinones” (J Med Chem, 1993).

The subject of assay [1] is EMT6. Description: Tested for 50% inhibition against EMT-6 murine mammary carcinoma cell under hypoxia condition. Type of assay: functional, cell-based. As to conditions: Mus musculus.
For assay [2], the system named is EMT6. Description: Tested for 50% inhibition against EMT-6 murine mammary carcinoma cell under normal oxygenated condition. Type of assay: functional, cell-based. As to conditions: Mus musculus.
The subject of assay [3] is EMT6. Description: Tested for 90% inhibition against EMT-6 murine mammary carcinoma cell under hypoxia condition. Type of assay: functional. As to conditions: Mus musculus.
Assay [4] deals with EMT6. Description: Tested for 90% inhibition against EMT-6 murine mammary carcinoma cell under normal oxygenated condition. Type of assay: functional. As to conditions: Mus musculus.
In assay [5] the test system is Mus musculus. Description: Increase in life span of animals bearing L1210 leukemia after ip administration at a dose of 0.50 mg/kg. As to conditions: route intraperitoneal. Type of assay: functional.
In assay [6] the test system is Mus musculus. Description: Increase in life span of animals bearing L1210 leukemia after ip administration at a dose of 1.00 mg/kg. The class given is functional. As to conditions: route intraperitoneal.
Assay [7] deals with Mus musculus. Description: Increase in life span of animals bearing L1210 leukemia after ip administration at a dose of 1.25 mg/kg. Type of assay: functional. As to conditions: route intraperitoneal.
Assay [8] deals with Mus musculus. Description: Increase in life span of animals bearing L1210 leukemia after ip administration at a dose of 1.50 mg/kg. The class given is functional. As to conditions: route intraperitoneal.
Assay [9] concerns Mus musculus. Description: Increase in life span of animals bearing L1210 leukemia after ip administration at a dose of 2.00 mg/kg. Type of assay: functional. As to conditions: route intraperitoneal.
For assay [10], the system named is Mus musculus. Description: Increase in life span of animals bearing L1210 leukemia after ip administration at a dose of 2.50 mg/kg; Toxic. Also noted: dose 2.5 mg/kg. The class given is functional, organism-based.
In assay [11] the test system is Mus musculus. Description: Survival days at a dose of 0.50 mg/kg after ip administration on days 1-5. The class given is functional. As to conditions: dose 0.5 mg/kg; route intraperitoneal.
The test system of assay [12] is Mus musculus. Description: Survival days at a dose of 1.00 mg/kg after ip administration on days 1-5. As to conditions: route intraperitoneal. Type of assay: functional.
For assay [13], the system named is Mus musculus. Description: Survival days at a dose of 1.25 mg/kg after ip administration on days 1-5. Type of assay: functional. As to conditions: route intraperitoneal.
Assay [14] concerns Mus musculus. Description: Survival days at a dose of 1.50 mg/kg after ip administration on days 1-5. The class given is functional. As to conditions: dose 1.5 mg/kg; route intraperitoneal.
Assay [15] has as its system Mus musculus. Description: Survival days at a dose of 2.00 mg/kg after ip administration on days 1-5. As to conditions: route intraperitoneal. Type of assay: functional.
Assay [16] has as its system Mus musculus. Description: Survival days at a dose of 2.50 mg/kg after ip administration on days 1-5. The class given is functional. As to conditions: dose 2.5 mg/kg; route intraperitoneal.

In general, IC50 refers to the concentration needed to halve the response being measured. High values mean a need for much substance, low ones inhibition by little substance. Broadly, the IC90 is the point of the concentration-response curve where the effect stands at 90%. On to `CCN(CC)C1=CC(=O)C(=O)C=C1N(CC)CC`, for which the IC50 in the assay on EMT6 [1] is 400 µM; with EMT6 [2] it was 500 µM. Further, the 90% effect concentration (IC90) with EMT6 [3] and with EMT6 [4] was more than 500 µM each time.
As to `COC1=CC(=O)C(=O)C=C1OC`, the results for the IC50 in the assay on EMT6 [1] and with EMT6 [2] were more than 500 µM and 500 µM, respectively. For the same molecule, the concentration for an effect of 90% (IC90) with EMT6 [3] and with EMT6 [4] was more than 500 µM throughout.
As for `O=C1C=C(N2CCCC2)C(N2CCCC2)=CC1=O`, the half-maximal inhibitory concentration (IC50) with EMT6 [1] and in the assay on EMT6 [2] was more than 500 µM throughout. Further, the IC90 in the assay with EMT6 [3] and with EMT6 [4] was more than 500 µM each time.
In the case of `CCOC(=O)NC1=C(N2CC2)C(=O)C(NC(=O)OCC)=C(N2CC2)C1=O` [DIAZIQUONE], the IC50 in the assay with EMT6 [1] is 7.5 µM; in the assay with EMT6 [2], 5 µM.
The ILS is how much longer treated animals lived than controls. Turning to `O=C1C=C(N2CC2)C(N2CC2)=CC1=O`, the results for the IC50 with EMT6 [1] and with EMT6 [2] were 0.2 µM and 0.4 µM, respectively. The results for the concentration for an effect of 90% (IC90) in the assay on EMT6 [3] and in the assay on EMT6 [4] were 1 µM and 1.1 µM, respectively. The same molecule came in with an ILS at 0.5 mg/kg in the assay on Mus musculus [5] of 70%. This molecule gave an increase in lifespan (ILS) at 1 mg/kg with Mus musculus [6] of 81%. In the assay on Mus musculus [7], the ILS at 1.25 mg/kg was 84%. Further, in the assay on Mus musculus [8], the increase in lifespan (ILS) at 1.5 mg/kg worked out at 86%. This molecule also came in with an ILS at 2 mg/kg in the assay on Mus musculus [9] of 59%. The ILS entry in the assay on Mus musculus [10] is “Toxic”. Moreover, the Survival days in the assay with Mus musculus [11] came to 12.6; with Mus musculus [12], 13.4; in the assay on Mus musculus [13], 13.6; in the assay with Mus musculus [14] it was 13.8; in the assay on Mus musculus [15], 11.8; in the assay on Mus musculus [16], 6.
On to `COC1=CC(=O)C(O)=C/C1=N\CCCl`, for which the IC50 was determined as 110 µM with EMT6 [1] and 125 µM in the assay on EMT6 [2]. The figures for the 90% effect concentration (IC90) in the assay with EMT6 [3] and with EMT6 [4] were 190 µM and 455 µM, respectively.
The like results for `O=C1C=C(N2CCC2)C(N2CCC2)=CC1=O` were, in that order, 400 µM, 500 µM, more than 500 µM and more than 500 µM.
